# Read-outs that look alike come from different tables or passages of the source.
# What was measured:
# [1] = target: T1, HDAC11 (Homo sapiens, UniProt Q96DB2); experiment: HDAC11 fluorimetric enzyme activity assay (Boc-Lys(TFA)-AMC), dose-response; assay type: biochemical
# T1 construct: His6 (N); SUMO (N); made in house; host or cells: E. coli BL21 (DE3)
# T1 sequence (Q96DB2 1-347): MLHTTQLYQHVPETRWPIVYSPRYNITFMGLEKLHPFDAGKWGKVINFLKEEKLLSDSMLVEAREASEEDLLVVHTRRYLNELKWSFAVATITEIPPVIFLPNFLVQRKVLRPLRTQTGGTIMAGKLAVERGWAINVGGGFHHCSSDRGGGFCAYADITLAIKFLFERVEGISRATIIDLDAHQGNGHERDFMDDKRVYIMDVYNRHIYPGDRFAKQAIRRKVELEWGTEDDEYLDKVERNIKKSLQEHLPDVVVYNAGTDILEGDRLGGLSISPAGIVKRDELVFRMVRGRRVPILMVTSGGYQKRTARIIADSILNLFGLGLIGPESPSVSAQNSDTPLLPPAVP
# [2] = target: HDAC1 (Homo sapiens, UniProt Q13547); experiment: Isoenzyme selectivity, HDAC1 dose-response; assay type: biochemical; conditions: means ± standard deviation (n = 3)
# HDAC1, sequence (Q13547 whole entry, species assumed): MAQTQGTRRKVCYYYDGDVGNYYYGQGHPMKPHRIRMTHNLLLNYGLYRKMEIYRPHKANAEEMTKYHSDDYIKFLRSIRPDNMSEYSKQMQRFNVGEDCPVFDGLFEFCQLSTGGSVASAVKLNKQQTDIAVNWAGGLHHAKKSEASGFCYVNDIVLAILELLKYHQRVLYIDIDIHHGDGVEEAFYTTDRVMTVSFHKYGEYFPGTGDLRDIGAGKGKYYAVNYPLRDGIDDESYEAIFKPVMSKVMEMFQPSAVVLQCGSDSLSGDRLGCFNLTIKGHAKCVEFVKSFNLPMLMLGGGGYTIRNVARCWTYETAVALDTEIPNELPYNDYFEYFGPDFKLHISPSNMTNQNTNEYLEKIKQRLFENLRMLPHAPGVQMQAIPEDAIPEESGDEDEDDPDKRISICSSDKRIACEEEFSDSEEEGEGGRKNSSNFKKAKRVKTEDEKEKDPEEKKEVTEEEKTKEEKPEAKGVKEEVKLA
# [3] = target: T2, HDAC6 (Homo sapiens, UniProt Q9UBN7); experiment: Isoenzyme selectivity, HDAC6 dose-response; assay type: biochemical; conditions: means ± standard deviation (n = 3)
# T2 sequence (Q9UBN7 1-1215): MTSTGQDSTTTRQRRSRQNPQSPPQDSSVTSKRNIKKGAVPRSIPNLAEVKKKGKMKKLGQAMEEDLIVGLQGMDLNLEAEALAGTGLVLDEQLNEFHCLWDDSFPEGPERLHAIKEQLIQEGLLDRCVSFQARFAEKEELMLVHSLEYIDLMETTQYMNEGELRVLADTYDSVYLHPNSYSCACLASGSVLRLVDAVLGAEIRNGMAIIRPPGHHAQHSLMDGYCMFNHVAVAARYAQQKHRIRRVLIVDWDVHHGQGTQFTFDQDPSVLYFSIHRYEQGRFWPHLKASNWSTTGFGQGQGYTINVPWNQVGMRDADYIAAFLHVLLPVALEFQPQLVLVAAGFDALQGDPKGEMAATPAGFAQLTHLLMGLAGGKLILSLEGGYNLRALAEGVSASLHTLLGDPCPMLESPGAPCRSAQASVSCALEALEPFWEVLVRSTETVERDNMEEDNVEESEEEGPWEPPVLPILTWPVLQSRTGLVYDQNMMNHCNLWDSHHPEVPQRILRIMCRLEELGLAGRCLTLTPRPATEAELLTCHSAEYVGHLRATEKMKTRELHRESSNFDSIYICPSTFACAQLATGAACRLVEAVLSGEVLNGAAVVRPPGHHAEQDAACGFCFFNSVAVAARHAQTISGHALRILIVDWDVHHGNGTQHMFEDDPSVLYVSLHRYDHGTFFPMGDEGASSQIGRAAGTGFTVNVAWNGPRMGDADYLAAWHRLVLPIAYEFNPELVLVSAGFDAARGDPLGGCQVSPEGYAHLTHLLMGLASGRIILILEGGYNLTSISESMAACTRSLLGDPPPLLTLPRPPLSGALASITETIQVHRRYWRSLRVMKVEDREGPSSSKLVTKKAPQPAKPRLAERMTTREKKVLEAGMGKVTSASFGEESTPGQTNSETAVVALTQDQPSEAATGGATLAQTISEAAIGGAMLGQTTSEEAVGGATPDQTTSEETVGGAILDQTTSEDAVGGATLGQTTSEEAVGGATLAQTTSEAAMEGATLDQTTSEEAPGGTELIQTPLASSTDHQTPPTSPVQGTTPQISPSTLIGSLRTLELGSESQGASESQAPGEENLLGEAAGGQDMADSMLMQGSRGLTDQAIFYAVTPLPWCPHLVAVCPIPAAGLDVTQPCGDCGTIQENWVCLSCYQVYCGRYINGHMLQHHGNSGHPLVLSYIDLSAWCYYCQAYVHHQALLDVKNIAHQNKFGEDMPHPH
# [4] = target: T1, HDAC11; experiment: High-throughput screening, residual HDAC11 enzyme activity; assay type: biochemical; conditions: final compound concentration 10 µM
# [5] = target: T3, HDAC8 (Homo sapiens, UniProt Q9BY41); experiment: Isoenzyme selectivity, HDAC8 dose-response; assay type: biochemical; conditions: means ± standard deviation (n = 3)
# T3 sequence (Q9BY41 1-377): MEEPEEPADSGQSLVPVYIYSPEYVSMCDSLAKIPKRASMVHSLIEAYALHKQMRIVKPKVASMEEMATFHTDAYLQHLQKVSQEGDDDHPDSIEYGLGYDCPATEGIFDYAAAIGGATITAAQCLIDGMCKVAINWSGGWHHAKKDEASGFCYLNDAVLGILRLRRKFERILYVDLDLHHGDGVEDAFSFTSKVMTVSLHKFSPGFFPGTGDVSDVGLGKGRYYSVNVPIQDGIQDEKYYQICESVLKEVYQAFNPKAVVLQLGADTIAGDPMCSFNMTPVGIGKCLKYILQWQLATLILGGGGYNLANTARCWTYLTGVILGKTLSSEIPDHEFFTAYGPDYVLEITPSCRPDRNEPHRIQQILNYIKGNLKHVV
# [6] = target: HDAC4 (Homo sapiens, UniProt P56524); experiment: Isoenzyme selectivity, HDAC4 dose-response; assay type: biochemical; conditions: means ± standard deviation (n = 3)
# HDAC4, sequence (P56524 whole entry, species assumed): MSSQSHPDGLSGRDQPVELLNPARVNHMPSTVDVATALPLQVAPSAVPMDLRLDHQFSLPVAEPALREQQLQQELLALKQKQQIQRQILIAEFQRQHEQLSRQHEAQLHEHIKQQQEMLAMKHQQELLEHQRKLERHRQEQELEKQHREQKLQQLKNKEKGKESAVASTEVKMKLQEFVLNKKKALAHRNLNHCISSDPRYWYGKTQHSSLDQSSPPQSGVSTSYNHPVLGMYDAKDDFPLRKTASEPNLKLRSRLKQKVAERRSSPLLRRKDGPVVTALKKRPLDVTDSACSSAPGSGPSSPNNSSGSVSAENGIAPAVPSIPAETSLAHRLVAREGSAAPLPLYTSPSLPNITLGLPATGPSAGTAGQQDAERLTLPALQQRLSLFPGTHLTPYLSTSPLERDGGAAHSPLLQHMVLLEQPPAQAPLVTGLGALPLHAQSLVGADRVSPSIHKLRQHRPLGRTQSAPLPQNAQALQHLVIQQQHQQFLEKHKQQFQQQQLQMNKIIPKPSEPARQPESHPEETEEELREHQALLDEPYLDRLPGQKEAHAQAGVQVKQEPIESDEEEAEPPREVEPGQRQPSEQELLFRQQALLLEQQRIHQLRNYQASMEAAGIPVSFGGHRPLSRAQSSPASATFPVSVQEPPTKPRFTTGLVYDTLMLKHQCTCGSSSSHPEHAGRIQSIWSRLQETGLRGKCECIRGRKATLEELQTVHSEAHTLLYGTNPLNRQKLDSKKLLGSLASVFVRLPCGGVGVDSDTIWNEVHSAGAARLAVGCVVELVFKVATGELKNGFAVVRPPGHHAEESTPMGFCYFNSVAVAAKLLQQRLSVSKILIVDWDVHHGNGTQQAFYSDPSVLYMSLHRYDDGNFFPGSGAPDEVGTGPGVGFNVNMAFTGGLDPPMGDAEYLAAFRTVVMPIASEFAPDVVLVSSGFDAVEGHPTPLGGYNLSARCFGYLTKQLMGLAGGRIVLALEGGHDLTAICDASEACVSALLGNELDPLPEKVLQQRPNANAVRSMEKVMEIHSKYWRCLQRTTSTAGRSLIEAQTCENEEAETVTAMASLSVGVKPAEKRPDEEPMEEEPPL
# [7] = tested on: HEK293 normal cells; experiment: Cytotoxicity testing (XTT) against HEK293; assay type: cell-based; conditions: HEK293, up to 100 uM, 24h
# Protocol: (§1) Figure S10: Cytotoxicity testing of indicated compound against HEK293 cell. 5000 HEK293 cells were seeded in 96-Well plates. After 48h Inkubationszeit at 37°C and 5% CO2 in DMEM supplemented with 10% FBS and 1% Pen/Strep. A serial 1:2 dilution starting with 100 uM of compounds was added and incubated for a further 24h. XTT reagent was added and incubated for 4h. Afterwards the absorbance was measure at 450 nm and 600 nm. Data points are mean values ± standard error, n ≥ 6.
# (§2) 9SPC045H03 in the enzyme activity assay is not due to compound-substrate interference. […]
# [8] = Cytotoxicity testing (XTT) against HEK293; assay type: cell-based; conditions: human, HEK293 cells, HEK293, 100 µM compound concentration, read-out: Cell viability
# Protocol: as §1, §2
# [9] = target: T1, HDAC11; experiment: Rapid dilution experiment (reversibility of binding); assay type: biochemical; conditions: 10× IC50, 100-fold rapid dilution, recovery of enzyme activity
# Protocol: The inhibitors were evaluated for reversible inhibition in an enzyme activity assay. […] After equilibration for 1 h at 30 °C, this solution is diluted 100-fold directly into 80 μM of the substrate Boc-Lys(TFA)-AMC. After a further hour of incubation, the reaction was stopped as indicated in the enzyme activity assay section.
# [10] = target: T1, HDAC11; experiment: Time-dependent IC50 / pre-incubation one-step enzyme assay; assay type: biochemical; conditions: pre-incubation for different times up to 60 min
# [11] = target: T1, HDAC11; parameters: method as in PMID 31264832; conditions: 50 µM; cited from earlier work
# [12] = target: T1, HDAC11; conditions: Figure 1 / text; read-out: HDAC11 IC50 of known inhibitors; cited from earlier work
# [13] = means ± standard deviation (n = 3), read-out: IC50 against HDAC11
structure (smiles),measurement,setting,value
O=C1NC(=O)/C(=C/c2ccc(O)nc2)S1 [9HDA018E08],IC50,[1]; [13],19000 ± 2000 nM
O=C(NO)c1ccc(CSc2nc3ccccc3c(=O)n2-c2ccccc2)cc1 [9HDA020B04],IC50,[1]; [13],2100 ± 200 nM
Cc1ccc(-n2c(SCc3ccc(C(=O)NO)cc3)nc3ccccc3c2=O)cc1 [9HDA020B05],IC50,[1]; [13],2000 ± 200 nM
CCc1ccc(-n2c(SCc3ccc(C(=O)NO)cc3)nc3cccc(C)c3c2=O)cc1 [9HDA020B06],IC50,[1]; [13],1600 ± 200 nM
O=C(NO)c1ccc(CSc2nc3ccccc3c(=O)n2-c2ccc(Br)cc2)cc1 [9HDA020B07],IC50,[1]; [13],2600 ± 400 nM
Cc1ccc(-n2c(SCc3ccc(C(=O)NO)cc3)nc3ccccc3c2=O)c(C)c1 [9HDA020B08],IC50,[1]; [13],2000 ± 200 nM
Cc1cccc(-n2c(SCc3ccc(C(=O)NO)cc3)nc3ccccc3c2=O)c1 [9HDA020B09],IC50,[1]; [13],1600 ± 300 nM
O=C(NO)c1ccc(CSc2nc3ccccc3c(=O)n2-c2cccc(Cl)c2)cc1 [9HDA020B10],IC50,[1]; [13],2000 ± 300 nM
O=C(NO)c1ccc(CSc2nc3ccccc3c(=O)n2-c2ccccc2F)cc1 [9HDA020B11],IC50,[1]; [13],4100 ± 500 nM
O=C(NO)c1ccc(CSc2nc3cc(Cl)ccc3c(=O)n2-c2ccccc2F)cc1 [9HDA020C04],IC50,[1]; [13],2000 ± 500 nM
Cc1cccc2nc(SCc3ccc(C(=O)NO)cc3)n(-c3ccccc3)c(=O)c12 [9HDA020C06],IC50,[1]; [13],1100 ± 400 nM
same,IC50,[2],1400 ± 400 nM
same,IC50,[3],200 ± 100 nM
same,Res. HDAC activity (residual HDAC11 activity),[4],58%
Cc1cccc2nc(SCc3ccc(C(=O)NO)cc3)n(-c3ccccc3F)c(=O)c12 [9HDA020C07],IC50,[1]; [13],1500 ± 300 nM
Cc1ccccc1-n1c(SCc2ccc(C(=O)NO)cc2)nc2cccc(C)c2c1=O [9HDA020C08],IC50,[1]; [13],3500 ± 800 nM
Cc1cccc2nc(SCc3ccc(C(=O)NO)cc3)n(-c3ccc(Cl)cc3)c(=O)c12 [9HDA020C09],IC50,[1]; [13],1900 ± 400 nM
same,IC50,[5],6000 ± 1000 nM
same,IC50,[2],2300 ± 500 nM
same,IC50,[3],900 ± 300 nM
same,IC50,[6],900 ± 400 nM
"O=C(O)/C=C/c1ccc(O)c(O)c1 [9LOP003E09, caffeic acid]",IC50,[1]; [13],> 100000 nM
"N#C/C(=C\c1ccc(O)c(O)c1)C(=O)NCCCc1ccccc1 [9LOP015D09, Tyrphostin AG 555]",IC50,[1]; [13],4300 ± 3000 nM
same,Res. HDAC activity (residual HDAC11 activity),[4],49%
"N#C/C(=C\c1ccc(O)c(O)c1)C(=O)NCc1ccccc1 [9LOP015E07, Tyrphostin AG 490]",IC50,[1],14000 ± 3000 nM
same,Res. HDAC activity (residual HDAC11 activity),[4],65%
O=C(CCc1ccccc1)c1c(O)cc(O)cc1O [9SPC036F04],IC50,[1]; [13],> 50000 nM
Oc1c(C(Nc2cccc(C(F)(F)F)c2)c2ccncc2)ccc2cccnc12 (centres unmarked) [9SPC045H03],Selectivity for HDAC11 against HDAC8,[1]; from IC50 values of Table 2,about 3 fold
same,"Selectivity for HDAC11 with respect to HDACs 1, 4, and 6",[1]; from IC50 values of Table 2,more than 30 fold
same,IC50,[1]; [13],2300 ± 500 nM
same,IC50,[5],13000 ± 5000 nM
same,Cytotoxic effect (in words),[7],moderately toxic effect
same,"viability at 24 h, 100 µM",[8],50%
same,Reversibility of binding to HDAC11,[9],reversible binding
same,IC50,[2],> 70000 nM
same,IC50,[3],67000 nM
same,Time-dependence of HDAC11 inhibition,[10],no time-dependent inhibition
same,IC50,[6],> 70000 nM
O=C(C=Cc1ccc(N=Cc2ccc([N+](=O)[O-])cc2)cc1)OCCc1ccccc1 [9SPC056H05],Res. HDAC activity (residual HDAC11 activity),[4],97%
"O=C(/C=C/c1ccc(O)c(O)c1)OCCc1ccccc1 [CAPE, caffeic acid phenethyl ester]",IC50,[1]; [13],1500 nM
same,IC50,[5],7000 ± 2000 nM
same,Cytotoxic effect (in words),[7],did not show cytotoxic effects
same,Reversibility of binding to HDAC11,[9],reversible binding
same,IC50,[2],22000 ± 5000 nM
same,IC50,[3],> 70000 nM
same,Time-dependence of HDAC11 inhibition,[10],no time-dependent inhibition
same,IC50,[6],68000 ± 30000 nM
same,Res. HDAC activity (residual HDAC11 activity),[4],46%
CCCCCCCCCCCCCCCCNNC(=O)c1cccs1 [SIS17],Degree of myristoylation of the HDAC11 substrate SHMT2 in cells,[11],significantly increased
same,IC50,[12],850 nM
